From patent US20060194315A1, “Compositions and methods for the control, differentiaton and/or manipulation of pluripotent cells through a gamma-secretase signaling pathway” (priority 2003, published 2006)

Legend:
Hes1 = test: Real-time RT-PCR of Hes1 induction by EDTA in hES cells; format: cell-based, human
Procedure: Hes1 induction by EDTA treatment was monitored by real-time RT-PCR. Cultures of […] on Matrigel-coated 24-well plates were treated with either 0.5% DMSO or 50 μM DAPT in CM for 4 hours to overnight before induction by EDTA exposure. The wells were exposed to 2 mM EDTA in CM (with DMSO or DAPT) for 15 minutes at 37° C. EDTA was neutralized by addition of 4.9 mM CaCl2 and incubated for a further 1.5 hours. The cells were harvested with Trizol and RNA was extracted as described above. Real-time PCR was performed using TaqMan primers and probes (Applied Biosystems, Inc.) for Hes1 (primer sequences: […] ID NO: 17); […] ID NO:18); probe […] NO:19)) and normalized to GAPDH (kit from Applied Biosystems, Inc; cat. no. 402869). Reactions were run and monitored on an ABI7700 Sequence Detection System (Applied Bioysytems, Inc). Data was analyzed as described in Pfaffl et al., 2002 Nucleic Acids Research 30(9): […]. REST-XL (version 2) software was used to determine relative quantification of Hes1 gene expression. The data were expressed as the ratio of GAPDH normalized Hes1 expression of EDTA-treated to EDTA-untreated samples. DAPT treated cultures were compared to DMSO treated cultures. These values were log transformed for statistical analysis by t-test and graphed in Excel.

gamma-secretase complex = target: T1, gamma-secretase complex (Homo sapiens, UniProt P49768); test: Western blot for gamma-secretase cleaved Notch1 (NICD) in hES cells harvested with Trypsin/EDTA; format: cell-based; settings: BGN1 hES cells grown in 50 μM DAPT for 3 days, vs 0.5% DMSO
T1 construct: endogenous in cells; host or cells: BGN1 human embryonic stem cells, grown on mouse embryonic fibroblast feeders
Procedure: Western blots were done using standard procedures. In brief, protein content of samples was determined with a BCA micro protein assay (Pierce, Rockford, Ill.) and equal amounts of protein were loaded onto precast polyacrylamide mini-gels (Gradipore, Australia). Proteins were transferred to nylon membranes which were then incubated for 30 minutes in blocking buffer (tris buffered saline/0.1% tween 20/5% powdered milk). Primary antibodies were diluted in blocking buffer at the following ratios: bTAN20 and C651.6bHN were diluted 1:10; anti-Oct4 was diluted 1:100; anti-presenilin, nicastrin, cleaved NOTCH1 were diluted 1:1000 and anti-HDAC was used at a concentration of 0.5 μg/ml. Primary antibodies were incubated overnight at 4° C., followed by two five-minute washes and one 15-minute wash in tris-buffered saline/0.1% tween 20. Secondary antibodies were diluted in blocking buffer and incubated with the membranes for 45 minutes at room temperature. Washes were repeated as above and a final 15-minute wash was done with tris-buffered saline. ECL (Amersham, Buckinghamshire, England) was performed according to the manufacturer's instructions and autoradiographs were made.
To address the possibility that trypsin non-specifically generated the 110 kD Notch1 band, DAPT, a potent and specific gamma-secretase inhibitor, was used to treat the hES cells before harvesting. […]

[1] = test system: hES cells (BGN1 and BGN2); test: Flow cytometry of SSEA4 and Notch1 expression in treated hES cell cultures; format: cell-based, human; settings: for proportion of cells in Fr. A (SSEA4high/Notch1high, undifferentiated cells): 50 μM DAPT vs DMSO, four experiments
Procedure: Cultures were harvested by Collagenase/trypsin passaging methods described above as an essentially single cell suspension, washed in 1×PBS, and fixed in 1% paraformaldehyde for 25 minutes on ice. The cells were washed in 1×PBS, blocked in 3% goat serum, and stained with primary antibodies for 30 minutes. to overnight at 4° C. The cells were washed in 1×PBS three times and stained with Secondary FITC or PE conjugated antibodies (Jackson Immunochemicals, Inc.) for 1 hour to overnight at 4° C. The cells were washed with 1×PBS three times and analyzed on a CyAn flow cytometer (DakoCytomation, Inc.).
Inhibition of gamma-secretase reduces the number of spontaneously differentiated cells in the culture. […] These experiments are diagramed in FIG. 9. hES cell master cultures were maintained with the manual passaging technique. A combination of Collagenase type IV treatment and Trypsin/EDTA exposure was used to passage the hES cells as single cells for no more than 10-12 passages before SSEA4 selection for early trypsin cultures, or were passaged more than 40 passages for late trypsin cultures. The cultures were selected for SSEA4 epitope expression using magnetic selection of SSEA4 antibody-stained cells. The retained fraction from the sort was plated and subjected to the treatment conditions. In some instances, SSEA4 selected cells were expanded for one or two passages. Treatment conditions were 50 μM DAPT, or 0.5% DMSO as carrier control. In some cases, these conditions were compared to untreated cells. The treated cultures were analyzed for SSEA4 expression by flow cytometry, immunohistochemistry, and EB formation.

hES cells [2] = test: Embryoid body formation from late trypsin passaged hES cultures; format: cell-based, human; settings: late trypsin passaged cultures maintained in DAPT vs DMSO vs untreated
Procedure: Embryoid bodies were formed from cultures that had been growing on Matrigel and exposed to the different treatments. These cultures were exposed to Collagenase type IV or Dispase (Gibco) for 10 minutes at 37° C. until a monolayer of cells lifted off of the dish. The monolayer was passed through a pipette tip until it was broken down to small clumps of approximately 500-1000 cells. These clumps were washed in 15% FBS/1% MEM nonessential amino acids/1 mM L-glutamine/penicillin (0.5 U/ml) and streptomycin (0.5 U/ml) twice by allowing them to settle by gravity, removing the supernatant, and resuspending the loose pellet. The cells were plated onto agarose coated Petri dishes in the same medium used for washing and allowed to grow for up to 10 days.
Inhibition of gamma-secretase reduces the number of spontaneously differentiated cells in the culture. […] These experiments are diagramed in FIG. 9. hES cell master cultures were maintained with the manual passaging technique. A combination of Collagenase type IV treatment and Trypsin/EDTA exposure was used to passage the hES cells as single cells for no more than 10-12 passages before SSEA4 selection for early trypsin cultures, or were passaged more than 40 passages for late trypsin cultures. […] The treated cultures were analyzed for SSEA4 expression by flow cytometry, immunohistochemistry, and EB formation.

hES cells [3] = test: SSEA4 immunohistochemistry of treated hES cell cultures; format: cell-based, human; settings: 50 μM DAPT vs DMSO treated cultures
Procedure: Cells on chamber slides were rinsed once with 1× PBS and fixed for 30 minutes in 4% PFA/4% sucrose in PBS pH7.4 at room temperature for surface staining, or in ice cold 100% methanol for 5 minutes at −20° C. followed by 4% PFA/4% sucrose in PBS for 10 minutes at room temperature for intracellular staining using the bTAN20 antibody. They were rinsed 3× in 1×PBS and blocked in 3% goat serum/1% PVP with or without 0.3% Triton-X100 in PBS for 30 minutes at 4° C. Primary antibodies were diluted in blocking solution and this solution was applied overnight at 4° C. to the cells. Cells were rinsed in 1×PBS and washed overnight with 3 changes of 1×PBS. Secondary antibodies were applied in blocking solution for 2 hours at 4° C. They were rinsed in 1×PBS then washed overnight with 3 changes of 1×PBS. Cell nuclei were stained with DAPI at 1 μg/ml in the first rinse for 10 minutes. The chambers were removed and slides were mounted in VectaShield mounting medium.
Inhibition of gamma-secretase reduces the number of spontaneously differentiated cells in the culture. […] These experiments are diagramed in FIG. 9. hES cell master cultures were maintained with the manual passaging technique. […] The treated cultures were analyzed for SSEA4 expression by flow cytometry, immunohistochemistry, and EB formation.

[4] = inhibitor treatment vs DMSO, 4 experiments, BGN1 and BGN2

T1 sequence (Q92542 34-709, other chains not shown): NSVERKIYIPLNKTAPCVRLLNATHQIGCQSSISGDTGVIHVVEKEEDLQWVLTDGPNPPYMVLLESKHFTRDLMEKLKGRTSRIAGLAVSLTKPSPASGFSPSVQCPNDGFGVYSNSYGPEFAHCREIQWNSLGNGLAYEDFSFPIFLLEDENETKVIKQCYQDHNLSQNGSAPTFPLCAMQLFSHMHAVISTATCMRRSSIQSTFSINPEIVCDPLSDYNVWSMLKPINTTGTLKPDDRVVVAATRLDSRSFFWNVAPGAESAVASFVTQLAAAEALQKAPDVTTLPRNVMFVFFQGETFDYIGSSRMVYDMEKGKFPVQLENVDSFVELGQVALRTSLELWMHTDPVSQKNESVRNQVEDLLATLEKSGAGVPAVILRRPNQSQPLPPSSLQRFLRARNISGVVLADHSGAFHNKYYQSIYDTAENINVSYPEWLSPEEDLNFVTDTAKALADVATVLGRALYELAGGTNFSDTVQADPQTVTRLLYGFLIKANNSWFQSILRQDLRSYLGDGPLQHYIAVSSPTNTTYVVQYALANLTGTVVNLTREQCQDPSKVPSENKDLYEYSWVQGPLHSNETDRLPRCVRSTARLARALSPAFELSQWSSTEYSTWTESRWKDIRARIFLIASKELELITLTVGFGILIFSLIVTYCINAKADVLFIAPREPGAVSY
T1 sequence (Q96BI3 whole entry, other chains not shown, further chain): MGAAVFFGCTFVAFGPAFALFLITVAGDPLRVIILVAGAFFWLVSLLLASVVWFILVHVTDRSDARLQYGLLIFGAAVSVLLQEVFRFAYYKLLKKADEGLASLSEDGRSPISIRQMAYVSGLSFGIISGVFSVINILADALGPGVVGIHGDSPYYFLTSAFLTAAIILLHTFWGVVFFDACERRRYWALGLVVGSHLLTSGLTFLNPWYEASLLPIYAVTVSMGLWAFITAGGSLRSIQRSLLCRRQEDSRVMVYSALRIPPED
T1 sequence (Q9NZ42 whole entry, other chains not shown, further chain): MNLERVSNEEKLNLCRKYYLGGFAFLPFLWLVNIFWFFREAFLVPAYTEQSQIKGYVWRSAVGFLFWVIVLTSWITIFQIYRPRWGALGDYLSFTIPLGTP

Row | SMILES | Hes1 induction by EDTA exposure (Hes1; 2 mM EDTA 15 minutes, three independent experiments) | generation of the NICD fragment (cleaved form of Notch1) upon Trypsin/EDTA exposure (gamma-secretase complex) | proportion of cells in Fr. A (SSEA4high/Notch1high, undifferentiated cells) ([1]; BGN1 and BGN2) | proportion of cells in Fr. A (SSEA4high/Notch1high, undifferentiated cells) ([1]; BGN1 and BGN2, listed as inhibitor) | cells in Fr. B (SSEA4low-neg/Notch1pos, differentiating cells) ([1]; 50 μM DAPT, average of four experiments, BGN1 and BGN2, DMSO control 30%, p=0.0243) [%] | proportion of Fr. B (SSEA4low-neg/Notch1pos) cells in culture, in words ([1]; DAPT vs DMSO and untreated, triplicate cultures) | number of cells in Fr. A [1, 4] | number of cells in Fr. B [1, 4] | Hes1 induction by EDTA in the presence of the inhibitor (GAPDH normalized expression ratio) (Hes1; 50 μM DAPT 4 hours to overnight, 2 mM EDTA 15 minutes, three independent experiments) | reduction in Hes1 expression with inhibitor treatment, significance (Hes1; EDTA induction, DAPT vs DMSO, p=0.032, t-test) | morphology of embryoid bodies (hES cells [2]) | homogeneity of SSEA4 expression (immunohistochemical stain) (hES cells [3])
1 | O=C(O)CN(CCN(CC(=O)O)CC(=O)O)CC(=O)O [EDTA] | up to 10 fold |  |  |  |  |  |  |  |  |  |  | 
2 | C[C@H](NC(=O)Cc1cc(F)cc(F)c1)C(=O)N[C@H](C(=O)OC(C)(C)C)c1ccccc1 [DAPT, N-[N-(3,5-Difluorophenacetyl-L-alanyl)]-S-phenylglycine t-Butyl Ester] |  | not generated | small but significant increase | significantly increased | 15 | reduced | remained unchanged | significantly reduced | less than two-fold | significant | returned the EBs to a cystic morphology | more homogenous
